Source: ChEMBL document CHEMBL2062485, “Structural characterization and antimicrobial evaluation of atractyloside, atractyligenin, and 15-didehydroatractyligenin methyl ester” (2012)

Key:
Assay type in all cases: functional
[1] = tested on: Staphylococcus aureus; assay: Antibacterial activity against Staphylococcus aureus […] by MTT assay
[2] = tested on: Staphylococcus aureus; assay: Antibacterial activity against floroquinilone-resistant Staphylococcus aureus SA1199B by MTT assay
[3] = tested on: Staphylococcus aureus; assay: Antibacterial activity against epidemic methicillin-resistant Staphylococcus aureus isolate 16 by MTT assay
[4] = tested on: Staphylococcus aureus; assay: Antibacterial activity against epidemic methicillin-resistant Staphylococcus aureus isolate 15 by MTT assay

Measured: MIC

C=C1C(=O)[C@@]23CC[C@@H]4[C@H](C(=O)OC)C[C@@H](O)C[C@@]4(C)[C@@H]2CC[C@H]1C3
128 µg/mL: all assays above
